Values quoted from earlier work as cited in paper PMC9516332 (Frontiers in Oncology, 2022).
Where two headings read alike, the source gives them in different places.

Legend:
Conditions in all cases: cited from earlier work
[1] = target: T1, panel of 255 wild-type kinases (Homo sapiens, UniProt P51955)
T1 sequence (P51955 1-445): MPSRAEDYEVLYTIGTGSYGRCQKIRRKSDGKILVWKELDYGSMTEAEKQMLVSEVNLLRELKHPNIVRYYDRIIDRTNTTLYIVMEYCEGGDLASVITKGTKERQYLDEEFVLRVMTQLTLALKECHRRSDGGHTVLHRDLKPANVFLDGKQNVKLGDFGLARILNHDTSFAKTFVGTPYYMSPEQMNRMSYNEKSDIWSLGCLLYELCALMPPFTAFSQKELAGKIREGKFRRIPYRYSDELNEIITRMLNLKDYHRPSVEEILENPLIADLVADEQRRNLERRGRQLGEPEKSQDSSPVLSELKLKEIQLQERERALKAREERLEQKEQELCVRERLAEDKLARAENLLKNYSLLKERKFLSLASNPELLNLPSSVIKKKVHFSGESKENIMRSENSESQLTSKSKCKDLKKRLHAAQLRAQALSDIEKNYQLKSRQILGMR

[2] = target: T2, panel of 255 wild-type kinases (Homo sapiens, UniProt O15111)
T2 sequence (O15111 1-745): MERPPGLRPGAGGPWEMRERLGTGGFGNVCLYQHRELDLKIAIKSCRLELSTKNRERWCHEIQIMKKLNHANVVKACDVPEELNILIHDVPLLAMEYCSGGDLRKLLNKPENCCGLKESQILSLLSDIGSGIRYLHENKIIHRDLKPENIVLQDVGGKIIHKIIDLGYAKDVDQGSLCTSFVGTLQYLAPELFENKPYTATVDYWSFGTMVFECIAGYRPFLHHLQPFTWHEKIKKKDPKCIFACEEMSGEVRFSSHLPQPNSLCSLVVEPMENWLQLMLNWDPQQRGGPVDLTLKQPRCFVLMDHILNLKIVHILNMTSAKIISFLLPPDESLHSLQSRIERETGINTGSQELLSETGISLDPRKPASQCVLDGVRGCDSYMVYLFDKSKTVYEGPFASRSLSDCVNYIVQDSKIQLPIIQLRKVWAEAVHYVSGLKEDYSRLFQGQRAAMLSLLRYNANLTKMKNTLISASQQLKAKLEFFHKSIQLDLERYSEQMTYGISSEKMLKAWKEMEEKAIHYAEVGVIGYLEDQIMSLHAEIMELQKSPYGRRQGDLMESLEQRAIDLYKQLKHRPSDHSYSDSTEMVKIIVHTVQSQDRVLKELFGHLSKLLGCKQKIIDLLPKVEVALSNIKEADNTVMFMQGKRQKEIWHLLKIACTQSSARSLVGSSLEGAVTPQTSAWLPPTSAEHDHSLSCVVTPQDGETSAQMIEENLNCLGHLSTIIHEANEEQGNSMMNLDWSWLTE

[3] = system: panel of 255 wild-type kinases
[4] = target: T3, panel of 255 wild-type kinases (Homo sapiens, UniProt P54762)
T3 sequence (P54762 18-984): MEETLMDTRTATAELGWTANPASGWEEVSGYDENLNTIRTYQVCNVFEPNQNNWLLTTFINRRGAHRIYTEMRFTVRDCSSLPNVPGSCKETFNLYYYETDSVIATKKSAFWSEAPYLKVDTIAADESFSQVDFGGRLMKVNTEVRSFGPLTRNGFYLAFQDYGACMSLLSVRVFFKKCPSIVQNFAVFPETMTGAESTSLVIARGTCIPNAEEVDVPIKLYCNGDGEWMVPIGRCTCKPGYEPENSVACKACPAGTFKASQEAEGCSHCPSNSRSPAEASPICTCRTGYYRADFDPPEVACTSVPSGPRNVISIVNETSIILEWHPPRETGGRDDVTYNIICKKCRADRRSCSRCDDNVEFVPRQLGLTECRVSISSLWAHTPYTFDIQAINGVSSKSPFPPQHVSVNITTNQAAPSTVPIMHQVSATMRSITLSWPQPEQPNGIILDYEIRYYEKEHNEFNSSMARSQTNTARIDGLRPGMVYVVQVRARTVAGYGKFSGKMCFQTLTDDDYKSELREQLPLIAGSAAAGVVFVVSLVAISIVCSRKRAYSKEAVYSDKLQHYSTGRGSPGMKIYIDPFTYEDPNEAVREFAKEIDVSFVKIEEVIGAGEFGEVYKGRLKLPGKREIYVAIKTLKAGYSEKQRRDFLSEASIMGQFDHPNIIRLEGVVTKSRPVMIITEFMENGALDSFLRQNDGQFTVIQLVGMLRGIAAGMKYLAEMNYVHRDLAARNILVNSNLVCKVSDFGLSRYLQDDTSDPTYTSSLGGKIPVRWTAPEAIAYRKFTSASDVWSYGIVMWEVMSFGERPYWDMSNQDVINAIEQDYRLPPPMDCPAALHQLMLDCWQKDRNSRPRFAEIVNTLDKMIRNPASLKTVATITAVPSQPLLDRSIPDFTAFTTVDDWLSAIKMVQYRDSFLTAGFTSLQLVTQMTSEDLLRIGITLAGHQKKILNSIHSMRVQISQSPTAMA

[5] = target: panel of 255 wild-type kinases (Homo sapiens, UniProt P07949)
[6] = target: panel of 255 wild-type kinases (Homo sapiens, UniProt Q13177)
[7] = NEK2, 1 µmol/L single concentration, ref DOI: 10.1158/1535-7163.MCT-18-0877
[8] = kinase IKKα, 1 µmol/L single concentration, ref DOI: 10.1158/1535-7163.MCT-18-0877
[9] = kinase FYN [isoform b], 1 µmol/L single concentration, ref DOI: 10.1158/1535-7163.MCT-18-0877
[10] = kinase LYNb, 1 µmol/L single concentration, ref DOI: 10.1158/1535-7163.MCT-18-0877
[11] = kinase PKCβ2, 1 µmol/L single concentration, ref DOI: 10.1158/1535-7163.MCT-18-0877
[12] = kinase SRM, 1 µmol/L single concentration, ref DOI: 10.1158/1535-7163.MCT-18-0877
[13] = kinase EPHB1, 1 µmol/L single concentration, ref DOI: 10.1158/1535-7163.MCT-18-0877
[14] = kinase RET, 1 µmol/L single concentration, ref DOI: 10.1158/1535-7163.MCT-18-0877
[15] = PAK2, 1 µmol/L single concentration, ref DOI: 10.1158/1535-7163.MCT-18-0877
[16] = kinase EPHB1, 1 µmol/L single concentration, ref DOI: 10.1371/journal.pone.0092146

CC#CC(=O)N1CCC[C@H]1c1nc(-c2ccc(C(=O)Nc3ccccn3)cc2)c2c(N)nccn12 [acalabrutinib]
%-inhibition, NEK2 [1, 7]: -6.35%
%-inhibition at 1 µmol/L, IKKα [2, 8]: -1.45%
%-inhibition at 1 µmol/L, FYN [isoform b] [3, 9]: -1.25%
%-inhibition at 1 µmol/L, LYNb [3, 10]: -2%
%-inhibition at 1 µmol/L, PKCβ2 [3, 11]: -12%
%-inhibition at 1 µmol/L, SRM [3, 12]: 39%
%-inhibition at 1 µmol/L, EPHB1 [4, 13]: -1.4%
%-inhibition at 1 µmol/L, RET [5, 14]: 14%
%-inhibition, PAK2 [6, 15]: -5%

CCc1cc2c(cc1N1CCC(N3CCOCC3)CC1)C(C)(C)c1[nH]c3cc(C#N)ccc3c1C2=O [alectinib]
%-inhibition, NEK2 [1, 7]: 3.37%
%-inhibition at 1 µmol/L, IKKα [2, 8]: -0.856%
%-inhibition at 1 µmol/L, FYN [isoform b] [3, 9]: 12%
%-inhibition at 1 µmol/L, LYNb [3, 10]: 15%
%-inhibition at 1 µmol/L, PKCβ2 [3, 11]: 0.0492%
%-inhibition at 1 µmol/L, SRM [3, 12]: 41%
%-inhibition at 1 µmol/L, EPHB1 [4, 13]: 21%
%-inhibition at 1 µmol/L, RET [5, 14]: 91%
%-inhibition, PAK2 [6, 15]: -29%

COc1cc(N2CCC(N3CCN(C)CC3)CC2)ccc1Nc1ncc(Cl)c(Nc2ccccc2P(C)(C)=O)n1 [brigatinib]
%-inhibition, NEK2 [1]: 5.7%
%-inhibition at 1 µmol/L, IKKα [2]: -0.856%
%-inhibition at 1 µmol/L, FYN [isoform b] [3]: 56%
%-inhibition at 1 µmol/L, LYNb [3]: 43%
%-inhibition at 1 µmol/L, PKCβ2 [3]: 31%
%-inhibition at 1 µmol/L, SRM [3]: 92%
%-inhibition at 1 µmol/L, EPHB1 [4]: 36%
%-inhibition at 1 µmol/L, RET [5]: 96%
%-inhibition, PAK2 [6]: 16%

Cc1cc(Nc2ncc(Cl)c(Nc3ccccc3S(=O)(=O)C(C)C)n2)c(OC(C)C)cc1C1CCNCC1 [ceritinib]
%-inhibition, NEK2 [1, 7]: 2%
%-inhibition at 1 µmol/L, IKKα [2, 8]: -0.91%
%-inhibition at 1 µmol/L, FYN [isoform b] [3, 9]: -4%
%-inhibition at 1 µmol/L, LYNb [3, 10]: 11%
%-inhibition at 1 µmol/L, PKCβ2 [3, 11]: 4%
%-inhibition at 1 µmol/L, SRM [3, 12]: 40%
%-inhibition at 1 µmol/L, EPHB1 [4, 13]: 26%
%-inhibition at 1 µmol/L, RET [5, 14]: 32%
%-inhibition, PAK2 [6, 15]: -4.22%

O=C(c1ccc(F)c(F)c1Nc1ccc(I)cc1F)N1CC(O)([C@@H]2CCCCN2)C1 [cobimetinib]
%-inhibition, NEK2 [1, 7]: 6.62%
%-inhibition at 1 µmol/L, IKKα [2, 8]: 1.07%
%-inhibition at 1 µmol/L, FYN [isoform b] [3, 9]: -0.687%
%-inhibition at 1 µmol/L, LYNb [3, 10]: 8%
%-inhibition at 1 µmol/L, PKCβ2 [3, 11]: -2%
%-inhibition at 1 µmol/L, SRM [3, 12]: 1.37%
%-inhibition at 1 µmol/L, EPHB1 [4, 13]: 4%
%-inhibition at 1 µmol/L, RET [5, 14]: 4%
%-inhibition, PAK2 [6, 15]: -17%

C[C@@H](Oc1cc(-c2cnn(C3CCNCC3)c2)cnc1N)c1c(Cl)ccc(F)c1Cl [crizotinib]
%-inhibition, NEK2 ([1]; NEK2, 1 µmol/L single concentration, ref DOI: 10.1371/journal.pone.0092146): -2.69%
%-inhibition at 1 µmol/L, IKKα ([2]; kinase IKKα, 1 µmol/L single concentration, ref DOI: 10.1371/journal.pone.0092146): -1.78%
%-inhibition at 1 µmol/L, LYNb [3]: 34%
%-inhibition at 1 µmol/L, PKCβ2 [3]: -1.6%
%-inhibition at 1 µmol/L, SRM [3]: 1.51%
%-inhibition at 1 µmol/L, EPHB1 [4, 16]: 93%
%-inhibition, PAK2 ([6]; PAK2, 1 µmol/L single concentration, ref DOI: 10.1371/journal.pone.0092146): 5%

CC(C)(C)c1nc(-c2cccc(NS(=O)(=O)c3c(F)cccc3F)c2F)c(-c2ccnc(N)n2)s1 [dabrafenib]
%-inhibition at 1 µmol/L, LYNb ([3]; kinase LYNb, 1 µmol/L single concentration, ref DOI: 10.1371/journal.pone.0092146): 86%
%-inhibition at 1 µmol/L, PKCβ2 ([3]; kinase PKCβ2, 1 µmol/L single concentration, ref DOI: 10.1371/journal.pone.0092146): -3%
%-inhibition at 1 µmol/L, SRM ([3]; kinase SRM, 1 µmol/L single concentration, ref DOI: 10.1371/journal.pone.0092146): 100%
%-inhibition at 1 µmol/L, EPHB1 [4, 16]: 12%
%-inhibition at 1 µmol/L, RET ([5]; kinase RET, 1 µmol/L single concentration, ref DOI: 10.1371/journal.pone.0092146): 49%

C=CC(=O)N1CCC[C@@H](n2nc(-c3ccc(Oc4ccccc4)cc3)c3c(N)ncnc32)C1 [ibrutinib]
%-inhibition, NEK2 [1, 7]: 6.64%
%-inhibition at 1 µmol/L, IKKα [2, 8]: 4.34%
%-inhibition at 1 µmol/L, FYN [isoform b] [3, 9]: 87%
%-inhibition at 1 µmol/L, LYNb [3, 10]: 100%
%-inhibition at 1 µmol/L, PKCβ2 [3, 11]: 1.78%
%-inhibition at 1 µmol/L, SRM [3, 12]: 102%
%-inhibition at 1 µmol/L, EPHB1 [4, 13]: 12%
%-inhibition at 1 µmol/L, RET [5, 14]: 88%
%-inhibition, PAK2 [6, 15]: -6%

CO[C@@H]1[C@H](N(C)C(=O)c2ccccc2)C[C@H]2O[C@]1(C)n1c3ccccc3c3c4c(c5c6ccccc6n2c5c31)C(=O)NC4 [midostaurin]
%-inhibition, NEK2 [1, 7]: 0.207%
%-inhibition at 1 µmol/L, IKKα [2, 8]: -0.107%
%-inhibition at 1 µmol/L, RET [5, 14]: 94%
